Assay [1] has as its system dendritic development of newborn neurons. Description: Dendritic development of retrovirus-GFP labelled newborn hippocampal neurons. The assay is classed as in vivo, mice.
The subject of a further assay is NSC proliferation. Description: Effect of GABAA receptor potentiator or antagonist treatment on NSC proliferation (BrdU+ cells in SGZ). The assay is classed as in vivo, mice. The following applies: 1 day after BrdU injection. The protocol: (§1) Female mice (3, 6-7, or 12-13 months of age) received two intraperitoneal injections of BrdU (Sigma, 100 mg/kg body weight) 6 h apart. One day, 3 days, and 4 and 10 weeks after the second injection, the brains were perfused with phosphate-buffered saline and collected.
To investigate the effect of GABAA receptor potentiator or antagonist treatment on NSC proliferation, female mice (6-7 months of age) were treated with once-daily intraperitoneal injections of pentobarbital (PB) (Sigma, 50 mg/kg; apoE4-KI mice) or picrotoxin (PTX) (Sigma, 4 mg/kg; apoE3-KI mice). Twenty-four hours after the last treatment, mice received two injections of BrdU (100 mg/kg) 6 h apart and were sacrificed 1 day later. […]
Mouse brains were fixed in 4% paraformaldehyde for 3 days, and coronal sections (40 μm) were cut continuously throughout the entire hippocampus with a vibratome. Single- or double-immunostained cells on both sides of the hippocampus of all stained sections were counted and calculated. Numbers of newborn cells (BrdU^+) and immature neurons (BrdU^+ and Dcx^+) in the SGZ were determined 1 or 3 days after BrdU injection; numbers of surviving newborn cells (BrdU^+) and mature neurons (BrdU^+ and NeuN^+) in the SGZ were determined 4 or 10 weeks after injection. Newborn neurons that had migrated from the SVZ to the OB were quantified 4 weeks after BrdU injection as reported (Galvão et al., 2008). […]

In the next assay the test system is neuronal maturation. Description: Effect of GABAA receptor potentiator or antagonist treatment on neuronal maturation (SGZ, 4 weeks after BrdU). The assay is classed as in vivo, mice. The protocol:
as §1
To investigate the effect of GABAA receptor potentiator or antagonist treatment on NSC proliferation, female mice (6-7 months of age) were treated with once-daily intraperitoneal injections of pentobarbital (PB) (Sigma, 50 mg/kg; apoE4-KI mice) or picrotoxin (PTX) (Sigma, 4 mg/kg; apoE3-KI mice). Twenty-four hours after the last treatment, mice received two injections of BrdU (100 mg/kg) 6 h apart and were sacrificed 1 day later. To investigate the effect of GABAA receptor potentiator or antagonist treatment on neuronal maturation, female mice (6-7 months of age) received two injections of BrdU 6 h apart. Twenty-four hours later, apoE3-KI mice received daily injections of PTX for 7 consecutive days, and apoE4-KI mice received daily injections of PB for 28 consecutive days. Mice were sacrificed 4 weeks after the second BrdU injection.
Mouse brains were fixed in 4% paraformaldehyde for 3 days, and coronal sections (40 μm) were cut continuously throughout the entire hippocampus with a vibratome. Every eighth section was immunostained with various primary and secondary antibodies and examined with a laser-scanning confocal system.
Immunostaining was carried out with anti-BrdU (mouse monoclonal, Chemicon, 1:400; or rat monoclonal, Abcam, 1:400) and/or with antibodies against other cellular markers, including mouse anti-NeuN (Chemicon, 1:400), mouse anti-nestin (Chemicon, 1:50), goat anti-Dcx (Santa Cruz Biotechnology, 1:40), goat anti-Sox2 (Santa Cruz Biotechnology, 1:350), rabbit anti-GFAP (Invitrogen, 1:400), mouse anti-β-III-tubulin (Promega, 1:800), mouse anti-S100β (Abcam, 1:400), and rat anti-Noggin (R&D Systems, 1:200). Corresponding secondary antibodies (Texas Red and fluorescein, 1:250, Vector Laboratories) were used. For Ki67, somatostatin, and GAD67 immunostaining, rabbit anti-Ki67 (Bethyl Labs, 1:1000), rat anti-somatostatin (Chemicon, 1:100), and mouse anti-GAD67 (Chemicon, 1:1500) were used with biotinylated goat anti-rabbit IgG (1:250), rabbit anti-rat IgG (1:250), and rabbit anti-mouse IgG (1:250) as secondary antibodies and diaminobenzadine as a chromagen (Dako).
Mouse brains were fixed in 4% paraformaldehyde for 3 days, and coronal sections (40 μm) were cut continuously throughout the entire hippocampus with a vibratome. Single- or double-immunostained cells on both sides of the hippocampus of all stained sections were counted and calculated. Numbers of newborn cells (BrdU^+) and immature neurons (BrdU^+ and Dcx^+) in the SGZ were determined 1 or 3 days after BrdU injection; numbers of surviving newborn cells (BrdU^+) and mature neurons (BrdU^+ and NeuN^+) in the SGZ were determined 4 or 10 weeks after injection. Newborn neurons that had migrated from the SVZ to the OB were quantified 4 weeks after BrdU injection as reported (Galvão et al., 2008). The number of GABAergic interneurons in the hilus of the dentate gyrus was determined by counting GAD67- and somatostatin-positive cells.

The test system of a further assay is GABAA receptors. It is filed as cell-based, mice. The following applies: for GABAergic miniature SSCs (mSSCs): BMI 100 μM, in presence of DNQX, D-AP5 and TTX, apoE3-KI and apoE4-KI mice. From the text:
ApoE3-KI and apoE4-KI mice (2-3 months) were sacrificed 2 weeks after retrovirus-GFP injection and processed for slice preparation as described (Duan et al., 2007; Ge et al., 2006a). Whole-cell voltage-clamp recordings from visually identified GFP^+ neurons (2 weeks after injection) were obtained with an infrared differential interference contrast video microscopy system.
Next the level of GABAergic synaptic innervation, which is critical for neuronal development of newborn hippocampal cells (Ge et al., 2006a; Ge et al., 2006b; Liu et al., 2006; Tozuka et al., 2005), was assessed. GABAergic miniature SSCs (mSSCs) were recorded from GFP^+ neurons (resting membrane potential Vm=−65 mV) 2 weeks after injection of the retrovirus-GFP construct. These studies were conducted in the presence of 6,7-dinitroquinoxaline-2,3-dione (DNQX) (20 μM) and D-(−)-2-amino-5-phosphonovaleric acid (D-AP5) (50 μM) to block glutamate-mediated currents and tetrodotoxin (TTX) (1 μM) to block action potential-mediated GABA release.
In the presence of DNQX and D-AP5, GABA-evoked postsynaptic currents (ePSCs) recorded from GFP^+ neurons were generated by electrical stimulation of GABAergic axons in the molecular layer of the dentate gyrus. This indicates a functional coupling between hilar GABAergic interneurons and newborn neurons in both apoE3-KI and apoE4-KI mice. However, the ePSC peak amplitude was ˜40% lower in apoE4-KI mice (FIGS. 6C, 6D, and 6F). This finding is consistent with a reduction of presynaptic GABAergic inputs onto newborn neurons available for electrical activation in apoE4-KI mice. […] This finding reconfirms the intact GABAA receptor function in newborn neurons of apoE4-KI mice.

The subject of another assay is NSCs from apoE-KO mice. The assay is described as follows: NSC culture and neural differentiation in vitro. It is filed as cell-based. The following applies: neuronal differentiation conditions, Noggin 500 ng/ml. The protocol:
NSCs were isolated from brains of apoE3-KI, apoE4-KI, wildtype, and apoE-KO mice at postnatal day 1 (P1) using a modified neurosphere method (Brewer and Torricelli, 2007; Ray and Gage, 2006). The expression of apoE and Noggin in NSCs with different apoE genotypes was assessed by anti-apoE and anti-Noggin (R&D Systems) western blots of cell lysates. Neural differentiation of the established NSCs with different apoE genotypes was induced in vitro as reported (Song et al., 2002). In some experiments, recombinant mouse Noggin (R&D Systems) was added at 500 ng/ml into the medium during neural differentiation. Neuronal and astrocytic differentiation of NSCs at 7 days was determined and quantified.

[2] abbreviates: apoE4-KI mice, daily PB for 4 weeks.
The mark [3] stands for this setting: apoE3-KI mice, daily PTX for 7 days, 4 weeks after BrdU injection.

Where two headings read alike, the source gives them in different places.

We go through five molecules from US20110135611A1 (priority 2009, published 2011).

As for `CCCC(C)C1(CC)C(=O)NC(=O)NC1=O` (stereo not drawn) [pentobarbital], in assay [1] (apoE3-KI mice treated with PB), the “length of dendritic branches of newborn neurons” value is “did not alter the length or number of dendritic branches” and the “number of dendritic branches of newborn neurons” value was “did not alter the length or number of dendritic branches”. Moreover, in assay [1] (apoE4-KI mice treated with PB), the “dendritic branch number of newborn neurons” value is “increases in both dendritic length and branch number to levels similar to those in wildtype and apoE3-KI mice”; the “dendritic length of newborn neurons” value is “increases in both dendritic length and branch number to levels similar to those in wildtype and apoE3-KI mice”. Moreover, in assay [1] (wildtype mice treated with PB), the “number of dendritic branches of newborn neurons” value is given as “trend toward significant increase (p=0.053)”. In addition, the “number of newborn cells (BrdU+) in the SGZ” value with NSC proliferation (apoE4-KI mice, PB 50 mg/kg i.p. once daily) was “decreased the number of newborn cells to levels similar to those of wildtype and untreated apoE3-KI mice”. Also, in the assay with neuronal maturation (setting [2]), the “number of immature neurons” value is on record as “decreased the number of immature neurons” and the “number of mature neurons” value is “increased the number of mature neurons”.
Consider picrotoxin, for which the “number of newborn cells (BrdU+) in the SGZ” value in the assay with NSC proliferation (apoE3-KI mice, PTX 4 mg/kg i.p. once daily for 3 days) is reported as “increased the number of newborn cells 1 day after BrdU injection to a level similar to that in untreated apoE4-KI mice”. Further, in the assay with neuronal maturation (setting [3]), the “number of immature neurons” value is listed as “the number of immature neurons was increased”, the “number of mature neurons” value was “the number of mature neurons was decreased” and the “survival of newborn cells” value is listed as “the survival of newborn cells was unaltered”.
For the molecule `NCCCC(=O)O` [GABA, gamma-aminobutyric acid], the “current amplitudes evoked by focal application” value in the assay on GABAA receptors (exogenous GABA 500 μM, GFP+ neurons from apoE3-KI vs apoE4-KI mice) is “evoked similar current amplitudes in GFP^+ neurons from apoE3-KI and apoE4-KI mice”.
Take `C[N+]1(C)CCc2cc3c(cc2[C@H]1[C@@H]1OC(=O)c2c1ccc1c2OCO1)OCO3.[I-]` [Bicuculline methoiodide]: in the assay with GABAA receptors (BMI 100 μM bath application, in presence of DNQX and D-AP5), the “ePSCs (evoked postsynaptic currents)” value is reported as “Currents were blocked”. The “GABAergic miniature SSCs (mSSCs)” value in the assay on GABAA receptors is recorded as “abolished the mSSCs”; in the assay with GABAA receptors (listed as BMI), “The mSSCs were blocked”.

B1: recombinant mouse Noggin: recombinant mouse Noggin (R&D Systems), bone-morphogenetic protein (BMP) inhibitor (protein, UniProt P97466 28-232, looked up)
Noggin: QHYLHIRPAPSDNLPLVDLIEHPDPIFDPKEKDLNETLLRSLLGGHYDPGFMATSPPEDRPGGGGGPAGGAEDLAELDQLLRQRPSGAMPSEIKGLEFSEGLAQGKKQRLSKKLRRKLQMWLWSQTFCPVLYAWNDLGSRFWPRYVKVGSCFSKRSCSVPEGMVCKPSKSVHLTVLRWRCQRRGGQRCGWIPIQYPIISECKCSC
For B1, in the assay with NSCs from apoE-KO mice, the astrogenesis result was “inhibited astrogenesis” and the neurogenesis entry is reported as “stimulated neurogenesis to levels similar to those of NSCs from wildtype mice”.
